Experimental data as given in PMC8838631, “Pistacia lentiscus L. Distilled Leaves as a Potential Cosmeceutical Ingredient: Phytochemical Characterization, Transdermal Diffusion, and Anti-Elastase and Anti-Tyrosinase Activities” (Molecules, 2022).
≈ marks a conversion by molar mass, not a printed value. Like-named read-outs stand apart in the source and are kept apart here. Blank lines part the entries; values can stand above or below the molecule they belong to.

Key:
[1] = target: porcine pancreatic elastase (Sus scrofa, UniProt P00772); test: Elastase inhibition assay (N-succinyl-Ala-Ala-Ala-p-nitroanilide substrate); type: biochemical; settings: for remaining activity at 100 µg/mL: read-out: Elastase activity (% of control)
Chain of porcine pancreatic elastase (P00772 27-266): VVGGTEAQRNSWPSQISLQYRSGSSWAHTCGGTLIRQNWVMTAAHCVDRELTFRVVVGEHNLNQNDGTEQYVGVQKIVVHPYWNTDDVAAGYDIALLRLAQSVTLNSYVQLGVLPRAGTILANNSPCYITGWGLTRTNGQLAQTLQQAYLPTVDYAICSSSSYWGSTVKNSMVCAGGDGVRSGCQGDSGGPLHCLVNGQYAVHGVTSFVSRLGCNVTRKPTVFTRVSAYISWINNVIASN
Method: The elastase inhibition activity of EAE and its pure molecules FC and FM2 was evaluated at different concentrations ranging from 12 to 100 µg/mL. […] At a concentration of 100 µg/mL, the percentages of elastase activity with EAE, FC, and FM2 were equal to 12%, 42%, and 29%, respectively. Besides, the percentage of elastase activity with Epigallocatechin gallate was 8%.
The elastase inhibitory effect of our samples was evaluated as described by Angelis et al., using the enzyme porcine pancreatic elastase and the substrate N-succinyl-Ala-Ala-Ala-p-nitroanilide. The extract and the pure molecules were evaluated at concentrations ranging between 12 and 100 µg/mL. Epigallocatechin gallate was used as a positive control. The elastase inhibition was measured using Equation (3):% Elastase inhibition = (ODcontrol − ODsample) ODcontrol × 100(3)

[2] = target: T1, cellular tyrosinase in B16 cells (Mus musculus, UniProt P11344); test: Cellular tyrosinase activity assay on B16 cells; type: cell-based
T1 sequence (P11344 19-533): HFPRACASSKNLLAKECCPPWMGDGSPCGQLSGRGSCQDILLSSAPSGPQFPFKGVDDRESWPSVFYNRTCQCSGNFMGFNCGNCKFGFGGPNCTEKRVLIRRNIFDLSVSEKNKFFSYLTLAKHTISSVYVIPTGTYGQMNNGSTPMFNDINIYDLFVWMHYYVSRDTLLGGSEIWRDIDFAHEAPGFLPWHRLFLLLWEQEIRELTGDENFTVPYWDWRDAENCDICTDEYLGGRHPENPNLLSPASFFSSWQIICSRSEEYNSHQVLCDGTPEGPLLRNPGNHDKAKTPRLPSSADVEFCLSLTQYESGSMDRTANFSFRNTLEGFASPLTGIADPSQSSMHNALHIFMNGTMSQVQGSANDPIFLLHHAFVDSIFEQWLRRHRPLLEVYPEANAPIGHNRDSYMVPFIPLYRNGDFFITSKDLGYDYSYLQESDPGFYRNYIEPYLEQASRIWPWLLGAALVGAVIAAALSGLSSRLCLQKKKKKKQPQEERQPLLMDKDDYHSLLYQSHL
Method: The cellular tyrosinase inhibition activity on B16 cells was evaluated using EAE, FC, and FM2.
(§1) B16 cells (C57BL/6, Resource No. RBRC-RCB0557) used in this study were prepared as described by Elloumi et al..
The cellular tyrosinase activity on B16 cells was evaluated as described by Kamei et al. with some modifications. Briefly, B16 cells were incubated in a 96-well plate (25 × 10^3 cells/well) for 24 h. […] After that, the cells were washed with PBS and lysed with PBS supplemented with 1% of Triton-X/PBS, after 48 h of samples exposure. A volume of 100 µL of 0.1% L-DOPA was added to the wells for 1 h. […] The cellular tyrosinase inhibition was measured as follows:% Cellular tyrosinase inhibition = (ODcontrol − ODsample)/ODcontrol × 100(5)

mushroom tyrosinase = test: Tyrosinase inhibition assay (L-DOPA substrate); type: biochemical; settings: for IC50 of tyrosinase activity: L-DOPA; for Tyrosinase activity (% of control): at a concentration of 100 µg/mL
Method: EAE and its pure molecules FC and FM2 were evaluated in vitro for their tyrosinase inhibition activity.
The inhibitory effect of our samples on the mushroom tyrosinase enzyme was analyzed using the substrate L-DOPA [71]. The extract and the pure molecules were evaluated at concentrations ranging between 12 and 200 µg/mL. […] The tyrosinase inhibition was measured as follows:% Tyrosinase inhibition = (ODcontrol − ODsample)/ODcontrol × 100(2)

[3] = Transdermal diffusion, Franz diffusion cell with strat-M membrane; type: in vitro ADME; settings: 5% EAE-hydro-cream, 24 h of incubation; for µg of Crossed Molecule/g of 5% Hydro-cream: strat-M membrane, 37 °C, mean ± SD (n = 9)
Method: The transdermal diffusion of 5% EAE-hydro-cream formulation was evaluated using Franz diffusion cell and start-M membrane. […] The receptor medium of the Franz cell was analyzed by HPLC-MS to determine the bioactive compounds that crossed the strat-M membrane after 24 h of incubation. […] The bioactive molecules FC and FM2 that crossed the strat-M membrane were subjected to quantification. […] Moreover, FC has crossed the membrane but with a lower concentration than FM2 (Table 4).
Transdermal diffusion was evaluated using a Franz diffusion cell system, as mentioned by Chuang et al. with certain modifications. Firstly, the start-M membrane, a model membrane for transdermal diffusion, was mounted in a Franz diffusion cell. Then, 5 mL of 0.1 M sodium phosphate buffer (PBS) and 1 g of extract formulation cream were placed in the receptor and the donor compartments, respectively. The extract formulation cream was prepared by mixing the hydro-cream base emulsion purchased from Galderma and the EAE at 5% (w/w) by a mechanical stirrer (VMI Rayneri, Francelab, Paris, France). The receptor medium of the Franz cell was maintained at 37 °C and stirred with a magnetic stirrer at 400 rpm. After 24 h, the receptor medium was recovered, evaporated, freeze-dried, and then 4 mL of MeOH was added. The sample was filtered through a 0.45 filter and analyzed by HPLC-MS to determine the bioactive molecules that were released from the start-M membrane. The bioactive molecules that crossed the start-M membrane were then quantified, as described in Section 4.4.6, by injecting the receptor medium through HPLC-DAD at a concentration of 10 mg/mL. Results were expressed as µg of molecule crossed the membrane/g of 5% EAE-hydro-cream.

B16 cells = test: Cell viability / cytotoxicity, MTT assay; settings: B16 cells, MTT; viability above 70% considered non-toxic (ISO 10993-5)
Method: (§2) The cell viability of EAE and the two major isolated molecules FC and FM2 were evaluated against B16 cells.
as §1
(§3) The MTT assay was performed to evaluate the cytotoxicity effect of our samples on B16 cells. Different sample concentrations (2.5–80 µg/mL) were applied to the Cells. The […] was measured as follows:% Cell viability = (ODsample/ODcontrol) × 100(4)

[4] = Cell viability / cytotoxicity, MTT assay; settings: mouse
Method: as §2, §1, §3

[5] = DPPH radical scavenging assay
Method: The DPPH scavenging test was carried out using the method mentioned by Brand-Williams et al.. The percentage of DPPH scavenging was measured using Equation (1): % DPPH scavenging = (ODcontrol − ODsample)/ODcontrol × 100(1)

[6] = at a concentration of 100 µg/mL

SMILES: O=C(O[C@@H]1Cc2c(O)cc(O)cc2O[C@@H]1c1cc(O)c(O)c(O)c1)c1cc(O)c(O)c(O)c1 [Epigallocatechin gallate, reference compound]
- Elastase activity (% of control) [1, 6]: 8%
- IC50 of elastase activity ([1]; porcine pancreatic elastase): 12 µg/mL

SMILES: C[C@@H]1O[C@@H](Oc2c(-c3cc(O)c(O)c(O)c3)oc3cc(O)cc(O)c3c2=O)[C@H](O)[C@H](O)[C@H]1O [FM2, myricetin-3-O-rhamnoside]
- remaining activity at 100 µg/mL [1, 6]: 29%
- IC50 ([1]; porcine pancreatic elastase, read-out: IC50 of elastase activity (converted)): 96.9 µM
- IC50 ([2]; B16 cells, 48 h of samples exposure, read-out: Cellular tyrosinase inhibition IC50 (converted)): 9.91 µM
- IC50 of tyrosinase activity (mushroom tyrosinase): 34 µg/mL
- Tyrosinase activity (% of control) (mushroom tyrosinase): 10%
- Crossing of the strat-M membrane (detected in receptor medium by HPLC-MS) [3]: have crossed the membrane
- µg of Crossed Molecule/g of 5% Hydro-cream [3]: 52.102 ± 0.001 µg/g of 5% hydro-cream
- Concentration that did not decrease the percentage of cell viability (B16 cells): ≤ 10 µg/mL
- IC50 ([4]; B16 cells): 19.3 ± 1.22 µg/mL (≈ 41.6 µM)

SMILES: C[C@@H]1O[C@@H](Oc2c(-c3ccc(O)c(O)c3)oc3cc(O)cc(O)c3c2=O)[C@H](O)[C@H](O)[C@H]1O [FC, quercetin-3-O-rhamnoside]
- IC50 [1]: 192 µM
- remaining activity at 100 µg/mL [1, 6]: 42%
- IC50 [2]: 7.49 µM
- IC50 of tyrosinase activity (mushroom tyrosinase): 49 µg/mL
- Tyrosinase activity (% of control) (mushroom tyrosinase): 9%
- Crossing of the strat-M membrane (detected in receptor medium by HPLC-MS) [3]: have crossed the membrane
- µg of Crossed Molecule/g of 5% Hydro-cream [3]: 3.161 ± 0.006 µg/g of 5% hydro-cream
- Concentration that did not decrease the percentage of cell viability (B16 cells): ≤ 2.5 µg/mL
- IC50 [4]: 6.4 ± 0.53 µg/mL (≈ 14.3 µM)

Other lines, results leading:

- Crossing of the strat-M membrane (detected in receptor medium by HPLC-MS) [3]: have crossed the membrane
SMILES: O=c1c(O[C@@H]2O[C@H](CO)[C@H](O)[C@H](O)[C@H]2O)c(-c2ccc(O)c(O)c2)oc2cc(O)cc(O)c12 [quercetin-3-O-galactoside]

- DPPH IC50 [5]: 13.85 µg/mL
SMILES: O=C1O[C@H]([C@@H](O)CO)C(O)=C1O [Ascorbic acid]

- Tyrosinase activity (% of control) (mushroom tyrosinase): 7%
SMILES: O=c1cc(CO)occ1O [kojic acid, reference compound]
